# Tested on: normal human lung fibroblasts
# Assay: Ribosomal profiling: translational efficiency in TGFβ-treated fibroblasts
# Type: cell-based
# Method: Ribosomal profiling allows for measurement of changes in transcription and translation on a genome-wide basis accompanying TGFβ-dependent transformation of fibroblasts to myofibroblasts. Ribosomal profiles of the TGFβ-treated fibroblasts from Example 1 (about 6×10^6 cells/10 cm plate) were prepared and analyzed for changes in translational efficiencies with respect to potential disease-associated cellular changes accompanying this TGFβ-induced transformation.
# Briefly, cells were washed with cold PBS supplemented with cycloheximide and lysed with 1× mammalian cell lysis buffer for 10 minutes on ice. Lysates were clarified by centrifugation for 10 minutes at 14,000 rpm and supernatants were collected. Cell lysates were processed to generate ribosomal protected fragments and total mRNA according to the instructions included with the ARTseq Ribosome Profiling Kit (Illumina, San Diego, Calif.). Sequencing of total RNA (RNA) and of ribosome-protected fragments of RNA (RPF) was carried out using RNA-Seq methodology according to the manufacturer's instructions (Illumina). To analyze the ribosomal profiles, RNA-Seq reads were processed with tools from the FASTX-Toolkit (fastq_quality_trimmer, fastx_clipper and fastx_trimmer). Unprocessed and processed reads were evaluated for a variety of quality measures using FastQC, and processed reads were mapped to the human genome using TopHat (see, e.g., Trapnell et al., Bioinformatics 25:1105, 2009). Gene-by-gene assessment of the number of fragments strictly and uniquely mapping to the coding region of each gene was conducted using HTSeq-count, a component of the HTSeq package. […] Genes with low counts in either RPF or RNA were excluded from differential analyses. Pathway and network analyses of differential data were conducted using Ingenuity Pathway Analysis (IPA).
substance,measurement,setting,value
TGFβ,change in translational profile of PPARG caused by TGFβ,"ENSG00000132170, Control vs. TGFβ",A (A = <−2.5)
same,Log2 TE KDM6B,"ENSG00000132510, 5 replicates",1.603
same,change in translational profile of KDM6B caused by TGFβ,"ENSG00000132510, Control vs. TGFβ",E (E = <1.5 to 2.5)
same,Log2 TE RARRES3,"ENSG00000133321, 5 replicates",−1.995
same,change in translational profile of RARRES3 caused by TGFβ,"ENSG00000133321, Control vs. TGFβ",B (B = <−1.5 to −2.5)
same,Log2 TE TMTC1,"ENSG00000133687, 5 replicates",−1.907
same,Log2 TE RPS15A,"ENSG00000134419, 5 replicates",2.195
same,Log2 TE SOX5,"ENSG00000134532, 5 replicates",−1.667
same,change in translational profile of BIVM caused by TGFβ,"ENSG00000134897, Control vs. TGFβ",B (B = <−1.5 to −2.5)
same,Log2 TE ATP5G2,"ENSG00000135390, 5 replicates",1.381
same,change in translational profile of ATP5G2 caused by TGFβ,"ENSG00000135390, Control vs. TGFβ",E (E = <1.5 to 2.5)
same,Log2 TE KRT7,"ENSG00000135480, 5 replicates",2
same,change in translational profile of KRT7 caused by TGFβ,"ENSG00000135480, Control vs. TGFβ",E (E = <1.5 to 2.5)
same,Log2 TE HNRNPA1,"ENSG00000135486, 5 replicates",1.086
same,change in translational profile of HNRNPA1 caused by TGFβ,"ENSG00000135486, Control vs. TGFβ",D (D = <1.0 to 1.5)
same,Log2 TE PCNXL2,"ENSG00000135749, 5 replicates",−1.261
same,Log2 TE PLXNC1,"ENSG00000136040, 5 replicates",−1.0996
same,Log2 TE IL6,"ENSG00000136244, 5 replicates",1.369
same,change in translational profile of IL6 caused by TGFβ,"ENSG00000136244, Control vs. TGFβ",E (E = <1.5 to 2.5)
same,Log2 TE RPL35,"ENSG00000136942, 5 replicates",1.28
same,change in translational profile of RPL35 caused by TGFβ,"ENSG00000136942, Control vs. TGFβ",E (E = <1.5 to 2.5)
same,change in translational profile of NOV caused by TGFβ,"ENSG00000136999, Control vs. TGFβ",C (C = <−1.0 to −1.5)
same,Log2 TE IL33,"ENSG00000137033, 5 replicates",−2.488
same,Log2 TE RPS6,"ENSG00000137154, 5 replicates",1.598
same,Log2 TE IER3,"ENSG00000137331, 5 replicates",1.702
same,change in translational profile of IER3 caused by TGFβ,"ENSG00000137331, Control vs. TGFβ",E (E = <1.5 to 2.5)
same,Log2 TE DDX60,"ENSG00000137628, 5 replicates",−1.211
same,change in translational profile of DDX60 caused by TGFβ,"ENSG00000137628, Control vs. TGFβ",C (C = <−1.0 to −1.5)
same,Log2 TE RPLP1,"ENSG00000137818, 5 replicates",1.461
same,change in translational profile of RPLP1 caused by TGFβ,"ENSG00000137818, Control vs. TGFβ",E (E = <1.5 to 2.5)
same,Log2 TE PAQR5,"ENSG00000137819, 5 replicates",−1.445
same,change in translational profile of PAQR5 caused by TGFβ,"ENSG00000137819, Control vs. TGFβ",B (B = <−1.5 to −2.5)
same,Log2 TE STAMBPL1,"ENSG00000138134, 5 replicates",−1.139
same,Log2 TE KIF20B,"ENSG00000138182, 5 replicates",−1.281
same,Log2 TE RPS24,"ENSG00000138326, 5 replicates",1.444
same,Log2 TE TET1,"ENSG00000138336, 5 replicates",1.853
same,Log2 TE AOX1,"ENSG00000138356, 5 replicates",−1.143
same,change in translational profile of AOX1 caused by TGFβ,"ENSG00000138356, Control vs. TGFβ",B (B = <−1.5 to −2.5)
same,Log2 TE NAB1,"ENSG00000138386, 5 replicates",−1.01
same,Log2 TE SLC40A1,"ENSG00000138449, 5 replicates",1.114
same,Log2 TE FGF5,"ENSG00000138675, 5 replicates",−1.163
same,change in translational profile of FGF5 caused by TGFβ,"ENSG00000138675, Control vs. TGFβ",B (B = <−1.5 to −2.5)
same,Log2 TE PDE5A,"ENSG00000138735, 5 replicates",−1.594
same,change in translational profile of PDE5A caused by TGFβ,"ENSG00000138735, Control vs. TGFβ",B (B = <−1.5 to −2.5)
same,Log2 TE FGD4,"ENSG00000139132, 5 replicates",−1.142
same,Log2 TE SLC38A4,"ENSG00000139209, 5 replicates",−1.142
same,Log2 TE GAS2L3,"ENSG00000139354, 5 replicates",−2.342
same,change in translational profile of GAS2L3 caused by TGFβ,"ENSG00000139354, Control vs. TGFβ",A (A = <−2.5)
same,Log2 TE TDG,"ENSG00000139372, 5 replicates",1.025
same,Log2 TE DIAPH3,"ENSG00000139734, 5 replicates",1.659
same,change in translational profile of DIAPH3 caused by TGFβ,"ENSG00000139734, Control vs. TGFβ",E (E = <1.5 to 2.5)
same,Log2 TE RPS2,"ENSG00000140988, 5 replicates",1.607
same,change in translational profile of MYO19 caused by TGFβ,"ENSG00000141140, Control vs. TGFβ",D (D = <1.0 to 1.5)
same,Log2 TE CACNA1A,"ENSG00000141837, 5 replicates",−1.055
same,Log2 TE RPS11,"ENSG00000142534, 5 replicates",1.314
same,Log2 TE RPL13A,"ENSG00000142541, 5 replicates",1.797
same,change in translational profile of RPL13A caused by TGFβ,"ENSG00000142541, Control vs. TGFβ",E (E = <1.5 to 2.5)
same,Log2 TE RPL11,"ENSG00000142676, 5 replicates",1.396
same,change in translational profile of RPL11 caused by TGFβ,"ENSG00000142676, Control vs. TGFβ",E (E = <1.5 to 2.5)
